Assays:
[1] = set-up: method as in Bick et al., 2002; Bi et al., 2016; settings: ref Bick et al., 2002, Bi et al., 2016; cited from earlier work
P-glycoprotein (P-gp) = target: T1, P-glycoprotein (P-gp) (Homo sapiens, UniProt P08183); experiment: Cellular uptake (intracellular accumulation) in MDCK-MDR1 cells; type: in vitro ADME; settings: 2 h; for increase of intracellular accumulation of cinobufotalin by verapamil: MDCK-MDR1 cells, verapamil 100 μM
T1 construct: expressed in transfected cells; host or cells: MDCK II (Madin Darby canine kidney) cells stably transfected with the MDR1 gene
T1 sequence (P08183 whole entry): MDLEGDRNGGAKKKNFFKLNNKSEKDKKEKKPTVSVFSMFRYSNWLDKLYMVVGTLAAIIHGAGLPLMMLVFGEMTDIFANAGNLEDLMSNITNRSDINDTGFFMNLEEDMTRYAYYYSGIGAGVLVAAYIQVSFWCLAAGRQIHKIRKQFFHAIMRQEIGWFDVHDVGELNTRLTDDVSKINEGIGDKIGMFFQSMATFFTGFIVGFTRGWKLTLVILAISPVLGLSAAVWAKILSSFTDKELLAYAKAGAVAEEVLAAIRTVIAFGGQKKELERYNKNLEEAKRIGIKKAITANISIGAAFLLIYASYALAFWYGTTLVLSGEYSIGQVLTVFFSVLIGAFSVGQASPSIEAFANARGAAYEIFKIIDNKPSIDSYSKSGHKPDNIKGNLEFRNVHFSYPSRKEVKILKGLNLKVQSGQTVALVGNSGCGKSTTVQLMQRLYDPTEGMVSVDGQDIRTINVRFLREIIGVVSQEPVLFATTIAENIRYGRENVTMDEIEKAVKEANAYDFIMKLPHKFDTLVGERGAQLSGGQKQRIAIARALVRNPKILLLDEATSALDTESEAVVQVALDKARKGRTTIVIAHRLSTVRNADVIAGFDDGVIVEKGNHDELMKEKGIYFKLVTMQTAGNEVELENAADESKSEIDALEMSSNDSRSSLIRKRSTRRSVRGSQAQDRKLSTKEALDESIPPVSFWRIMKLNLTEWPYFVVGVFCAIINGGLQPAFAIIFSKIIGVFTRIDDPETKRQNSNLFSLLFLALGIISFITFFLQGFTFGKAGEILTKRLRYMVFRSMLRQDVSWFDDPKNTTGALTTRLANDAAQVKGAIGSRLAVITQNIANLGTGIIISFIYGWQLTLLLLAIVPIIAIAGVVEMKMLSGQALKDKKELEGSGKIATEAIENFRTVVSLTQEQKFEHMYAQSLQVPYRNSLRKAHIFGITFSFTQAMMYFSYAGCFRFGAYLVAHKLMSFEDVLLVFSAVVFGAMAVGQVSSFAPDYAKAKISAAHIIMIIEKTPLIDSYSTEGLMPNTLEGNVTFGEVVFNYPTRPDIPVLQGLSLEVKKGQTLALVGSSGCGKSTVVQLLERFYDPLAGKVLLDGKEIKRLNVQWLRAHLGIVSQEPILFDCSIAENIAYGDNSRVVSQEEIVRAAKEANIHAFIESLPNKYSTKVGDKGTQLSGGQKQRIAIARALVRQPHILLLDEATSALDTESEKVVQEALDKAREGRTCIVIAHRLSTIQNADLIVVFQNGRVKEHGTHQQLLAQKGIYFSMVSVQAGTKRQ
Description: (§1) Madin Darby canine kidney (MDCK II) cells stably transfected with multidrug resistance 1 gene (MDCK-MDR1 cells) were conducted and used in cinobufotalin uptake studies. Wild type MDCK II or MDCK-MDR1 cells were seeded into six-well plates at the destiny of 2 × 10^5 cells/well and maintained at 37°C under 5% CO2 in DMEM with 10% FBS. The well-known P-gp inhibitor, verapamil (100 μM), was used as the positive control to evaluate the effect of P-gp on cinobufotalin uptake ([Bicker et al., 2017]).
(§2) The uptake experiment was performed when the cells reached 100% confluency. First, cells were washed three times using 37°C Hanks’ balanced salt solution (HBSS) buffer (pH = 7.2). Then, 2 mL HBSS (37°C, pH = 7.2) buffer containing cinobufotalin (5 and 20 μM) were added and incubated with cells in the absence or presence of potential P-gp inhibitors, verapamil (100 μM). After incubation for 2 h, the incubation medium was removed, and cells were washed three times using ice-cold HBSS buffer. Then 400 μL of ice-cold MeOH:H2O (1:1, v/v) were added into each well, the cells were collected and sonicated for 15 min in ice-cold water. The mixture was centrifuged at 4°C (12,000 g, 10 min), and the supernatant was subjected to UPLC-QTOF/MS for analyses.

MDCK II cells = experiment: Cellular uptake (intracellular accumulation) in MDCK II cells; type: in vitro ADME, canine; settings: verapamil 100 μM, 2 h
Description: as §1, §2

CC(=O)O[C@H]1[C@H]2O[C@]23[C@@H]2CC[C@]4(O)C[C@@H](O)CC[C@]4(C)[C@H]2CC[C@]3(C)[C@H]1c1ccc(=O)oc1 [Cinobufotalin]
toxicity on over dose [1]: cardiotoxicity and neurotoxicity
intracellular amount of cinobufotalin in MDCK II cells compared with MDCK-MDR1 cells (P-glycoprotein (P-gp); 5 and 20 μM): obviously higher
increase of intracellular accumulation of cinobufotalin by verapamil (P-glycoprotein (P-gp); cinobufotalin 5 μM): 4.0 fold
increase of intracellular accumulation of cinobufotalin by verapamil (P-glycoprotein (P-gp); cinobufotalin 20 μM): 3.5 fold
effect of verapamil on the intracellular accumulation of cinobufotalin (MDCK II cells): did not alter

Source: paper PMC6533572, “Elucidation of the Differences in Cinobufotalin’s Pharmacokinetics Between Normal and Diethylnitrosamine-Injured Rats: The Role of P-Glycoprotein” (Frontiers in Pharmacology, 2019)
